Results reported in patent publication US20140079836A1, “METHODS AND COMPOSITIONS FOR ALTERING HEALTH, WELLBEING, AND LIFESPAN” (LifeSpan Extension, LLC, priority 2008, published 2014).

System: entire human genome (gene expression profile)
Experiment: Agilent whole human genome array, skin fibroblasts AG07999, antioxidant with or without UV
Format: cell-based
Protocol: Cell cultures: A human skin fibroblast cell culture was obtained through the Coriell Cell Repository from the National Institute on Aging Cell Repository. […] Culture media: Cells were grown in Minimal Essential Medium supplemented with 10% fetal bovine serum, 2 mM L-glutamine, 2 mM Glutamax I. […] All cultures were incubated at 37° C. with 5% CO2 in a humidified chamber. […] On Day 5 after 24 hours of exposure to test conditions, the cells were isolated and the RNA isolated using the RT^2q PCR-grade RNA isolation kit (Superarray Bioscience Corporation). […] Analysis of Agilent Whole Human Genome Arrays: RNA taken from both samples was sent to Cogenics, Inc. Morrisville, N.C. Cogenics, Inc. is a leading, state-of-the-art, microarray service provider that facilitates and accelerates transcriptome profiling and gene discovery processes for industrial and academic researchers. Cogenics' procedure for processing samples is as follows: RNA samples are received and analyzed by Cogenics, Inc. using rigorous standardized procedures that are designed to ensure quality and chain of custody. Each sample undergoes a thorough quality analysis using an Agilent Bioanalyzer microfluidics device, and is precisely quantified using a Nanodrop-1000 spectro-photometer. When the Agilent Oligonucleotide Microarray Platform is utilized, samples are fluorescently labeled using the Agilent Low-Input Linear Amplification Kit. Upon completion of this process, the labeled cRNA products are assessed using the same processes described above. These labeled samples are then fragmented and hybridized to oligonucleotide microarrays. The microarrays are washed and then scanned using an Agilent DNA Microarray Scanner with Sure Scan technology. Data is extracted from the images produced by the scanner using Agilent's Feature Extraction software. At this point, the scanned image is visually inspected for defects, and the extracted data is statistically analyzed to ensure quality of the assay. Extracted data and images can be loaded into Rosetta Resolver Gene Expression Data Analysis System for in-depth analysis, both from a quality standpoint, as well as to develop biological understanding. […] A table was generated and provided as a tab-delimited text file. This file will contain the log ratio, fold-change, log ratio p-value, etc. for every transcript measured by the microarray. Using Rosetta Resolver, a single ratio comparison was compiled based on the results of the two fluorophore reversal hybridization performed in the context of this project. The ratios were calculated such that the Tx sample was in the numerator and the UnTx sample was in the denominator. A table was generated, saved as tab-delimited text files, and is provided on the DVD that accompanied this report in the “Objective—1” subdirectory or the “Data_Analysis” directory. These files contain the log ratio, fold-change, log ratio p-value, etc. for every transcript present on the microarray. […] A table for will be generated and provided as a tab-delimited text file. The file will contain the log ratio, fold-change, log ratio p-value, etc. for only the differentially expressed transcripts within the context of the comparison. […] These criteria were applied to the comparison made in Objective 1. A table was generated, saved as tab-delimited text files, and is provided on the DVD that accompanied this report in the “Objective—1” subdirectory or the “Data_Analysis” directory. […] Cell cultures: A human skin fibroblast cell culture (or cultures) will be obtained through the Coriell Cell Repository from the National Institute on Aging Cell Repository. […] Culture media: Cells will be grown in Minimal Essential Medium supplemented with 10% fetal bovine serum, 2 mM L-glutamine, 2 mM Glutamax I.

Structure (SMILES): COC1=C(OC)C(=O)C(CCCCCCCCCCO)=C(C)C1=O [Idebenone, 6-(10-hydroxydecyl)-2,3-dimethoxy-5-methyl-1,4-benzoquin-one]
- TFAM Expression (Idebenone + UVB): 1.1
- TPO Expression (Idebenone + UVB): 1.0
- TROAP Expression (Idebenone + UVB): −1.1
- TTN Expression (Idebenone + UVB): 1.3
- TXNRD2 Expression (Idebenone + UVB): −1.6
- UNR Expression (Idebenone + UVB): 1.4
- VEGFA Expression (Idebenone + UVB): −1.3
- AKT1 Expression (Idebenone Alone): 1.0
- ALOX12 Expression (Idebenone Alone): −1.1
- APOE Expression (Idebenone Alone): 1.0
- ARG2 Expression (Idebenone Alone): 1.0
- ATOX1 Expression (Idebenone Alone): −1.0
- CAMK1 Expression (Idebenone Alone): −1.1
- CAT Expression (Idebenone Alone): 1.2
- CCNA1 Expression (Idebenone Alone): 1.0
- CCS Expression (Idebenone Alone): −1.0
- CDKN1A Expression (Idebenone Alone): 1.4
- CYBA Expression (Idebenone Alone): 1.0
- CYGB Expression (Idebenone Alone): 1.2
- DDAH2 Expression (Idebenone Alone): 1.1
- DLG4 Expression (Idebenone Alone): 1.0
- DNCL1 Expression (Idebenone Alone): 1.0
- DND1 Expression (Idebenone Alone): 1.0
- DUOX1 Expression (Idebenone Alone): 1.0
- DUOX2 Expression (Idebenone Alone): −1.1
- DUSP1 Expression (Idebenone Alone): −1.4
- EGFR Expression (Idebenone Alone): 1.8
- EPX Expression (Idebenone Alone): −1.6
- FOXM1 Expression (Idebenone Alone): −1.0
- GCH1 Expression (Idebenone Alone): 1.0
- GCHFR Expression (Idebenone Alone): 1.0
- GLA Expression (Idebenone Alone): −1.2
- GLRX2 Expression (Idebenone Alone): 1.1
- GPR156 Expression (Idebenone Alone): 1.3
- GPX1 Expression (Idebenone Alone): 1.0
- GPX2 Expression (Idebenone Alone): 1.0
- GPX3 Expression (Idebenone Alone): 1.0
- GPX4 Expression (Idebenone Alone): −1.3
- GPX5 Expression (Idebenone Alone): 1.0
- GRIN2D Expression (Idebenone Alone): 1.0
- GSS Expression (Idebenone Alone): −1.1
- HSP90AB1 Expression (Idebenone Alone): 1.0
- IL8 Expression (Idebenone Alone): −1.2
- IL10 Expression (Idebenone Alone): 1.1
- INS Expression (Idebenone Alone): −1.0
- JUN Expression (Idebenone Alone): 1.0
- KRT1 Expression (Idebenone Alone): 1.1
- LPO Expression (Idebenone Alone): 1.1
- MBL2 Expression (Idebenone Alone): 1.0
- MPO Expression (Idebenone Alone): 1.0
- MSRA Expression (Idebenone Alone): 1.0
- MT3 Expression (Idebenone Alone): −1.1
- MTL5 Expression (Idebenone Alone): 1.5
- MYB Expression (Idebenone Alone): 1.0
- NCF1 Expression (Idebenone Alone): −1.7
- NCF2 Expression (Idebenone Alone): 1.1
- NME5 Expression (Idebenone Alone): 1.0
- NOS1 Expression (Idebenone Alone): 1.9
- NOS2A Expression (Idebenone Alone): 1.0
- NOS3 Expression (Idebenone Alone): 1.0
- NOSIP Expression (Idebenone Alone): 1.0
- NOSTRIN Expression (Idebenone Alone): 1.1
- NOX5 Expression (Idebenone Alone): 1.0
- NQO1 Expression (Idebenone Alone): −1.3
- NRF1 Expression (Idebenone Alone): −1.0
- NUDT1 Expression (Idebenone Alone): 1.3
- OXR1 Expression (Idebenone Alone): 1.0
- PGC Expression (Idebenone Alone): −1.2
- PKAR1B Expression (Idebenone Alone): 1.1
- PNKP Expression (Idebenone Alone): 1.0
- PP3CA Expression (Idebenone Alone): 1.0
- PRDX2 Expression (Idebenone Alone): −1.3
- PRDX6 Expression (Idebenone Alone): −1.1
- PREX1 Expression (Idebenone Alone): 1.0
- PRG3 Expression (Idebenone Alone): 1.0
- PRKCA Expression (Idebenone Alone): 1.0
- PRNP Expression (Idebenone Alone): −1.0
- RNF7 Expression (Idebenone Alone): 1.2
- SCARA3 Expression (Idebenone Alone): 1.1
- SCRT2 Expression (Idebenone Alone): 1.4
- SELS Expression (Idebenone Alone): 1.0
- SEPP1 Expression (Idebenone Alone): 1.2
- SGK2 Expression (Idebenone Alone): 1.2
- SIRT2 Expression (Idebenone Alone): −1.0
- SOD1 Expression (Idebenone Alone): −1.0
- SOD2 Expression (Idebenone Alone): −1.2
- SOD3 Expression (Idebenone Alone): −1.3
- SRXN1 Expression (Idebenone Alone): 1.5
- TFAM Expression (Idebenone Alone): −1.2
- TPO Expression (Idebenone Alone): 1.0
- TROAP Expression (Idebenone Alone): −1.0
- TTN Expression (Idebenone Alone): 1.0
- TXNRD2 Expression (Idebenone Alone): −1.3
- UNR Expression (Idebenone Alone): 1.0
- VEGFA Expression (Idebenone Alone): −1.7
- POT1 Expression (Human Genome Expression Values) (agent + UVB): 1.2
- RAP1 Expression (Human Genome Expression Values) (agent + UVB): −1.1
- TERT Expression (Human Genome Expression Values) (agent + UVB): −1.3
- TIN2 Expression (Human Genome Expression Values) (agent + UVB): 1.1
- TNKS2 Expression (Human Genome Expression Values) (agent + UVB): 1.1
- TNKS Expression (Human Genome Expression Values) (agent + UVB): 1.3
- TPP1 Expression (Human Genome Expression Values) (agent + UVB): 1.0
- TRF1 Expression (Human Genome Expression Values) (agent + UVB): 1.3
- TRF2 Expression (Human Genome Expression Values) (agent + UVB): −1.1
- POT1 Expression (Human Genome Expression Values) (agent Alone): −1.0
- RAP1 Expression (Human Genome Expression Values) (agent Alone): −1.1
- TERT Expression (Human Genome Expression Values) (agent Alone): 1.1
- TIN2 Expression (Human Genome Expression Values) (agent Alone): 1.1
- TNKS2 Expression (Human Genome Expression Values) (agent Alone): −1.0
- TNKS Expression (Human Genome Expression Values) (agent Alone): 1.1
- TPP1 Expression (Human Genome Expression Values) (agent Alone): −1.1
- TRF1 Expression (Human Genome Expression Values) (agent Alone): −1.0
- TRF2 Expression (Human Genome Expression Values) (agent Alone): 1.0
